# Test results taken from a melting point compilation (Tetko et al.; mined from patent text by program, amines drawn as free bases though some values may be those of a salt).
row,melting point,SMILES
1,192 to 193 °C,COc1ccc2nc3ccc(OC)cc3c(C(=O)O)c2c1
2,77 to 78 °C,CCCc1c(OCCCOc2cc(OCc3ccccc3)c(-c3ccc(F)cc3)cc2CC)cccc1Oc1cc(F)ccc1C(=O)OC
3,152 to 155 °C,COC(=O)c1cc2c3cc(C)ccc3n(C)c2s1
4,130 to 131 °C,O=C(Nc1ccc(-n2nc(C(F)(F)F)cc2OC(F)F)cc1)c1ccccc1F
5,282 °C,CC(O)Cc1ccc(-c2ccc3cc(C(=O)O)ccc3c2)cc1C12CC3CC(CC(C3)C1)C2 (configuration not stated)
6,131 to 132 °C,CC(=O)OC[C@H](c1ccccc1)N1C(=O)C=CC1=O
7,129 to 130 °C,CCOC(=O)c1[nH]nnc1Nc1ccccc1
8,120 to 135 °C,CC(C)N1CC(Oc2ccc(-c3cccc(N)n3)c3ccccc23)C1
9,165 to 167 °C,COc1ccc2cc(-c3cc4c(cc3[N+](=O)[O-])OCO4)ccc2c1
10,180 to 182 °C,Cc1c(CC(=O)O)c2cc(O)ccc2n1C(=O)c1ccc(F)cc1
11,139 to 140 °C,NC(=O)c1cc(Cl)cc(-c2cccc3cc(Cc4cccc(C(F)(F)F)c4)sc23)c1
12,91 to 95 °C,Cn1c(Cl)cnc1CN1C(=O)C2(COc3cc4c(cc32)OCCO4)c2ccccc21 (configuration not stated)
13,176 to 178 °C,CCOC(=O)c1cc(=O)c2c(C(C)C)cccc2[nH]1
14,151 to 153 °C,CC(C)c1ccc2c(c1)c(Sc1ccccc1)c(CC(=O)O)n2Cc1ccc(Cl)cc1
15,100 to 102 °C,CN(CCOc1cn(-c2ccc(F)cc2)c2cc(Cl)ccc12)CCN1CCNC1=O
16,93 to 96 °C,COc1cccc([C@@H](c2ccc(C3CN(CCC(=O)O)C3)cc2)N2C[C@@H](C)N(Cc3ccccc3)C[C@@H]2C)c1
17,87 to 89 °C,COc1ccc(-c2cccc(COCCc3cccc(NC(N)=O)c3)c2)cc1
18,138 to 139 °C,CCCCc1nc2cccc(C(=O)OCC)c2n1Cc1ccc(-c2ccccc2-c2nnn[nH]2)cc1
19,187 to 189 °C,Clc1cccc(Cl)c1Cn1c(-c2ccc3c(c2)OCO3)nc2ccccc21
20,56 to 70 °C,O=C(NC(Cc1c[nH]c2ccccc12)C(=O)O)c1ccccc1Cl (racemic)
21,117 to 119 °C,O=C(Cl)c1sc2ccc(Oc3ccccc3)cc2c1Cl
22,243 to 245 °C,COc1cccc2c(NCc3ccccc3)nc(N)nc12
23,266 to 272 °C,CCC(c1oc2ccc(F)cc2c(=O)c1-c1ccccc1)n1cnc2c(N)ncnc21 (configuration not stated)
24,144 to 145 °C,CC(C)C(=O)C(O)(Cc1ccc(Cl)cc1Cl)c1cccnc1 (configuration not stated)
25,79 to 80 °C,COC(=O)C(c1ccc(-c2ccccc2F)cc1)S(C)=O (configuration not stated)

row,melting point,SMILES
1,162 to 164 °C,COC(=O)c1c(C(=O)OC)c2n(c1C)-c1ccccc1C2
2,126 to 127 °C,CN(C)CCNc1ccc(CNS(C)(=O)=O)c2sc3ccccc3c(=O)c12
3,100 to 112 °C,COC(=O)C(O)Cc1ccc(OCCN(C)c2nc3ccccc3o2)cc1 (configuration not stated)
4,115 to 116 °C,CC(=O)Nc1ccc(-c2nnn(-c3ccc(C(F)(F)F)cc3F)c2N)cc1
5,195 to 197 °C,CC(=O)C1=C(O)C(=C(C)Nc2ccc(OC(=O)NCc3ccccc3)cc2)C(=O)OC1=O
6,237 to 239 °C,Cc1sc2c(Sc3ccccc3)c3ccccc3c(-c3cc(Br)c(O[C@H](C)C(=O)O)c(Br)c3)c2c1C
7,259 to 261 °C,CN1C(C(=O)Nc2cccccc2=O)=C(O)c2ccccc2S1(=O)=O
8,235 to 255 °C,COc1ccc2c(c1O)CC(C(=O)O)N(C(=O)N(C)c1ccccc1)C2 (racemic)
9,158 to 159 °C,Cc1ccccc1CNc1cc(C(=O)N(C)C)cc2c1nc(C)n2C
10,89 to 90 °C,CCOc1nn(Cc2ccc(OCCc3ccc(CC)cn3)cc2)cc1CCC(=O)O
11,192 to 194 °C,COC(=O)c1cc(=O)c2ccc(OCC(O)COc3cccc(O)c3C(C)=O)cc2[nH]1 (configuration not stated)
12,99 to 101 °C,COC(C)CCOc1c(-c2ccc(S(C)(=O)=O)cc2)cnn(-c2ccc(F)c(F)c2)c1=O (configuration not stated)
13,102 to 104 °C,CCCNC(=O)C1(CCCCC#N)c2ccccc2-c2ccccc21
14,131 to 133 °C,C[C@@H](Oc1c(Br)cc(-c2c3ccccc3c(Br)c3sc4ccccc4c23)cc1Br)C(=O)O
15,54 to 58 °C,COc1cc(OC)nc(Sc2nccc(-c3cccc(Cl)c3)c2C(=O)NS(C)(=O)=O)n1
16,225 to 226 °C,COc1ccc2c(c1)sc1nc(Nc3ccccc3)nc(=N)n12
17,71.5 to 73.5 °C,Cc1ccccc1C(F)(F)C(F)(F)c1ccccc1C
18,71 to 72 °C,CCCC(Cl)C(=O)c1ccccc1 (configuration not stated)
19,192 to 197 °C,Cc1ccc(Nc2c([N+](=O)[O-])ccc(Cl)c2C(=O)O)cc1
20,70 °C,C=CCC1(c2ccccc2)OC(C(=O)OC)Oc2ccc(Cl)cc21 (configuration not stated)
21,78 to 80 °C,COC(=O)C1CSC(c2cc3ccccc3n2C)=N1 (configuration not stated)
22,98 °C,Cc1cc(-n2ccnc2)c2cccc(OCc3c(Cl)ccc(S(=O)(=O)N4CCC[C@H]4C(=O)N(C)CCN(C)C)c3Cl)c2n1
23,108 to 109 °C,CC(C)c1cccc(CC(=O)O)c1OCCCc1cn(-c2ccc(C(F)(F)F)cn2)nc1C(C)C
24,85 to 86 °C,COc1cccc(Oc2cccc(-c3cccc(C(=O)NCCC#N)c3)n2)c1
25,172 to 175 °C,CC(C)(C(=O)c1ccccc1)C(N)=S

# More lines, now with the values behind:
row,SMILES,melting point
1,Nc1ncccc1CNC1CCN(Cc2ccccc2)CC1,114 °C
2,CC(C)(C)C#Cc1cc(Cl)cc2c1OC(C(F)(F)F)C(C(=O)O)=C2 (configuration not stated),218 to 222 °C
3,CS(=O)(=O)c1ccc2c(C=C[N+](=O)[O-])c[nH]c2c1,> 250 °C
4,N#CCCNCCCC(=O)O,122 to 124 °C
5,CCOC(=O)C(C(=O)OCC)C(CC#N)c1ccc(CC)cc1 (configuration not stated),157 to 159 °C
6,CCCCCCCCCCCCCC(O)c1nc2ncccc2o1 (configuration not stated),52 to 54 °C
7,COc1ccc(COCc2ccc(OC)cc2)cc1,58 to 59 °C
8,O=C1c2c(F)c(F)c(F)c(F)c2C(=O)N1c1ccc(F)cc1F,145 to 146 °C
9,CCN(CC)CCNC(=O)c1cc(C#N)c(Cl)cc1OC,104 to 105 °C
10,Cc1cccc(C)c1NC=O,163 to 164 °C
11,Cc1cc(F)ccc1-n1c(CF)nc2ccc(N)cc2c1=O,193 to 196 °C
12,CCCc1nc(NC)n2ncc(C(=O)c3ccccc3Cl)c2n1,116 to 118 °C
13,Cc1ncc(C(=O)O)cn1,166 to 170 °C
14,NP(=O)(O)CCc1ccccc1,226 °C
15,Cc1cc(CNc2cccc3c2C(=O)N(C2CCC(=O)NC2=O)C3=O)oc1C (configuration not stated),127 to 129 °C
16,COc1ccc2ncc3c(c2c1)C(OC(C)=O)CCC3 (configuration not stated),116 to 117 °C
17,O=C(O)C1Cc2ccc(Cl)cc2NC1=O (configuration not stated),158 to 160 °C
18,CSC(=N[N+](=O)[O-])NCc1cnc(Cl)s1,162 to 165 °C
19,COc1cc2c(cc1Nc1ncc(Cl)c(Nc3ccccc3S(=O)(=O)N(C)C)n1)CCN(C(=O)CN1CCOCC1)CC2,84 to 95 °C
20,CC(C)(N)CNC(=O)Cc1ccccc1,68 to 71 °C
21,CN1C(=O)CC[C@]2(C)c3ccc(Sc4nc5cc(Cl)ccc5s4)cc3CC[C@@H]12,179 to 180 °C
22,O=C(NC1C=NC=CC1=O)c1ccccc1F (configuration not stated),116 to 117 °C
23,c1cn2nc(SCCOC3CCCCO3)ccc2n1 (configuration not stated),60 to 62 °C
24,COc1cccc(C(=O)O)c1C,145 to 147 °C
25,CC(=O)Nc1cc(C(F)(F)F)cc(C(F)(F)F)c1[N+](=O)[O-],190 to 192 °C
26,CC1CN=C2C=CC(c3cccnc3)=NN21 (configuration not stated),104 to 105 °C

row,SMILES,melting point
1,O=C1CN(c2ccccc2)C(=O)N1C1CCCCC1,196 °C
2,COC(=O)NCC1CN(c2ccc(C3C=CS(=O)(=O)CC3)cc2)C(=O)O1 (configuration not stated),196 to 197 °C
3,CCCC[C@@H](C)C(C(=O)O)C(=O)O,123 °C
4,CCCN(CCC)c1c(CC)nn2c(-c3ccc(N(C)C)cc3C(F)(F)F)cccc12,69.1 to 79.8 °C
5,CCOC(=O)c1c(C(F)(F)F)nc(C(F)(F)Cl)c(C(=O)OC)c1NC(C)(C)C,51.5 to 53 °C
6,CCOC1CC2(C)C(CCC3C4CCC(C(C)=O)C4(C)CC(NCCC(C)C)C32)CC1O (configuration not stated),110 to 112 °C
7,NC(=O)c1ccccc1N1CCOCC1,112 to 119 °C
8,CCOC(=O)c1c(C(F)(F)F)nc(C(F)F)c(C(=O)OC)c1CS(C)(=O)=O,110 to 112 °C
9,CCOC(=O)CC[C@H](NC(=O)c1ccc(C(COC2CCCCO2)CC2CNc3nc(NC(=O)C(C)(C)C)nc(O)c3C2)cc1)C(=O)OCC (some centres not stated),183 to 186 °C
10,Nc1ncc2ncn(CCC(CO)CO)c2n1,154 °C
11,[N-]=[N+]=NCc1ccc2nc[nH]c2c1,110 to 114 °C
12,CNC(=O)N1C=CSC1c1sc(SC)c2c1CC(C)(C)CC2=O (configuration not stated),202 to 204 °C
13,Cc1cc(C)c(=O)n(C(C(=O)O)c2ccc3c(c2)OCO3)n1 (configuration not stated),165 °C
14,O=C1CCCC(O)=C1C(=O)Nc1ccc(Cl)cc1,113 to 114 °C
15,COC(=O)C(C)(C)Nc1nc(Cl)ccc1[N+](=O)[O-],96 to 97 °C
16,CC(C)(C)c1ccc(C(NC(=O)c2c(F)cccc2F)N2CCOCC2)cc1 (configuration not stated),199 to 200 °C
17,CCOC(=O)c1cn2c3c(c(F)c(F)c(N)c3c1=O)CCN2C,255 to 257 °C
18,CCNC1([C@@H]2CCN(c3ccc4c(=O)c(C(=O)O)cn([C@@H]5C[C@@H]5F)c4c3C)C2)CC1,191 to 194 °C
19,Cn1c2c(ccc1=O)C(NCCc1ccc([N+](=O)[O-])cc1)CCC2 (configuration not stated),138 to 139 °C
20,Cc1nc2c(N)cccn2c1C,148 to 150 °C
21,CN(c1nnc(C(F)(F)F)s1)C1CCN(Cc2cccc(F)c2)CC1,80.5 °C
22,Nc1nccnc1C(=O)NCCCn1ccnc1,118 to 120 °C
23,COc1ccc(N2N=C3c4cc(C)sc4S(=O)(=O)CCC3CC2=O)cc1 (configuration not stated),190 to 191 °C
24,CCCCCCCCCc1ccc(C(CCCCC(=O)O)SCCC(=O)O)cc1 (configuration not stated),61 to 62 °C
25,O=C(Nc1ccc(-n2nc(C(F)(F)F)cc2C(F)(F)F)cc1)c1cc(F)c(F)c(F)c1F,138 to 140 °C
26,CN1CCN(c2ccc(C#N)c3ccccc23)CC1,128 to 129 °C
